This note sets out measurements from patent US7691624B2, “Cancer cell detecting devices” (Academia Sinica, priority 2003, dated 2010).

In data set [1] the test system is CL1-0 cancer cells. Briefly: Fluorescence of stained cells in eppendorf under LED, recorded by camera. The class given is cell-based, human. Conditions: for Numbers of cells required to distinguish cancer cells and normal cells: Cancer cells (C) CL1-0. As to the method:
(§1) Human lung CL1-0 cancer cells or MRC-5 normal cells were incubated with 0.5 μM of Compound 2 and acridine orange (AO). After incubation in standard culture medium for 1 hour, the non-fixed cells were removed by washing the culture three times with phosphate buffered saline (PBS). The fixed cells were collected in an eppendorf by trypsinization. The eppendorf was centrifuged and then illuminated by an light emitting diode (LED) emitting excitation light with a center wavelength at 470 nm. A conventional digital camera was used to record the fluorescence. Table 1 summarizes the numbers of cells required to distinguish cancer cells from normal cells based on fluorescence emission of Compound 2 and AO recorded by a camera under different experimental conditions. Specifically, Compound 2 and AO were incubated with four different cells in eppendorf, i.e., MRC-5 normal cells, primary fibroblast, CL1-0 cancer cells, and HeLa cancer cells.

Data set [2] concerns MRC-5 normal cells. The data set is described as above. The format is cell-based, human. Conditions: for Numbers of cells required to distinguish cancer cells and normal cells: Normal cells (M) MRC-5. The protocol:
as §1

In data set [3] the test system is G10. Briefly: Pre-stained gel electrophoresis selectivity assay. Conditions: 0.1 μM compound, 10 μM DNA, 254 nm UV light. The class given is binding. The protocol:
(§2) Pre-stained gels were used for selectivity assays. A 0.1 μM compound 2 solution was initially incubated with 10 μM of different DNA solutions for 10 minutes. Gel electrophoresis was then carried out in an electric field of 100 V/cm at 4° C. for 6 hours. All of the pre-stained gels were photographed under 254 nm UV light using a Bio-Rad imaging detector.
(§3) Gels pre-stained with compound 2 were used before running electrophoresis for AT, LD, GC, G10, LQ1, LQ2, LQ4, Tet12, Oxy12, Hum12, Apt, Oxy28, and Hum24. […] This third band is ascribed to be a linear tetramer of Tet12.

Data set [4] concerns GC. Briefly: Pre-stained gel electrophoresis selectivity assay. The format is binding. Particulars: 0.1 μM compound, 10 μM DNA, 254 nm UV light. The protocol: as §2, §3
Data set [5] has as its system Oxy12. Briefly: Pre-stained gel electrophoresis selectivity assay. The class given is binding. Particulars: 0.1 μM compound, 10 μM DNA, 254 nm UV light. As to the method: as §2, §3
Data set [6] relates to LD. Briefly: Pre-stained gel electrophoresis selectivity assay. The class given is binding. Conditions: 0.1 μM compound, 10 μM DNA, 254 nm UV light. The protocol:
as §2, §3

The test system of data set [7] is Hum12. Briefly: Pre-stained gel electrophoresis selectivity assay. The format is binding. Particulars: 0.1 μM compound, 10 μM DNA, 254 nm UV light. The protocol: as §2, §3
Data set [8] concerns LQ2. Briefly: Pre-stained gel electrophoresis selectivity assay. Conditions: 0.1 μM compound, 10 μM DNA, 254 nm UV light. The format is binding. As to the method: as §2, §3
For data set [9], the system named is LQ1. Briefly: Pre-stained gel electrophoresis selectivity assay. The format is binding. Conditions: 0.1 μM compound, 10 μM DNA, 254 nm UV light. As to the method: as §2, §3
For data set [10], the system named is AT. Briefly: Pre-stained gel electrophoresis selectivity assay. The class given is binding. Particulars: 0.1 μM compound, 10 μM DNA, 254 nm UV light. As to the method: as §2, §3
For data set [11], the system named is Apt. Briefly: Pre-stained gel electrophoresis selectivity assay. Particulars: 0.1 μM compound, 10 μM DNA, 254 nm UV light. The class given is binding. The protocol: as §2, §3
A short description of data set [12]: Absorption analysis of the free compound. The format is physicochemical. Conditions: compound alone, before adding DNA. The protocol: Each oligonucleotide described above was mixed with a solution of 10 mM Tris-HCl (pH 7.5) and 150 mM NaCl and was denatured at 90° C. for 2 min. The mixture was then cooled slowly to room temperature and stored at 4° C. for more than 2 days before use. A test compound was then added to this solution to form a compound/DNA complex. The resultant complex was subjected to absorption analysis using a Hitachi U3200 UV-visible spectrophotometer.
The absorption spectra were taken for compound 2 and its complex with each oligonucleotide. […] In addition, the molar absorption coefficient decreased by ˜15% in the presence of a DNA duplex and ˜35% in the presence of a DNA quadruplex. 10 These spectra changes indicate that compound 2 binds to duplexes and quadruplexes.

Data set [13] concerns DNA quadruplex. Briefly: Fluorescence analysis of compound/DNA complex. The format is binding. The protocol: (§4) Compound 2 was mixed with eleven DNAs and subjected to fluorescence analysis at λex≈430 nm, using a Hitachi F4010 spectrofluorimeter with a 2 nm bandwidth in a 1-cm cell. Fluorescence analysis was also carried out for compound 4 in the presence of Hum24. […] Further, the fluorescence peaks for a complex of compound 2 and a DNA duplex and a complex of compound 2 and a DNA quadruplex were at ˜550 nm and ˜575 nm, respectively.

The test system of data set [14] is DNA duplex. Briefly: Fluorescence analysis of compound/DNA complex. The format is binding. Conditions: complex with a DNA duplex, λex≈430 nm. As to the method:
as §4

`C[n+]1ccc(C=Cc2ccc3[nH]c4ccc(C=Cc5cc[n+](C)cc5)cc4c3c2)cc1.[I-].[I-]` [Compound 2, 3,6-bis-(2-(1-methylpyridinium-4-yl)-vinyl)-9H-carbazole diiodide]: the melting point (as a rule, the temperature of the solid-liquid transition) is more than 300 °C. Further, the “fluorescence emission in eppendorf” value in data set [1] (0.5 μM, 1 hour, LED 470 nm) is recorded as “fluorescence emission was clearly observed”. Besides, the “Numbers of cells required to distinguish cancer cells and normal cells” value (shortened to “Numbers of cells required”) in data set [1] (0.1 μM/30 min) was 2,000 (C). Also, in [1] (0.5 μM/1 hr), the “Numbers of cells required” value is listed as 1,000 (C). Besides, the “fluorescence emission in eppendorf” value in data set [2] (0.5 μM, 1 hour, LED 470 nm) is “no appreciable fluorescence emission was observed”. Further, the “Numbers of cells required” value in [2] (0.1 μM/30 min) is listed as 10,000 (M). For the same compound, the “Numbers of cells required” value in data set [2] (0.5 μM/1 hr) is on record as 8,000 (M). Besides, in [3], the “fluorescence band in pre-stained gel” value was “no fluorescence bands”. Moreover, the “fluorescence band in pre-stained gel” value in [4] was “no fluorescence bands”. Also, the “fluorescence band in pre-stained gel” value in data set [5] was “exhibited fluorescence bands”. For the same compound, the “fluorescence band in pre-stained gel” value in data set [6] is “weak fluorescence bands”. The “fluorescence band in pre-stained gel” value in data set [7] is given as “weak fluorescence bands”. For the same compound, the “fluorescence band in pre-stained gel” value in data set [8] was “exhibited fluorescence bands”. In addition, the “fluorescence band in pre-stained gel” value in [9] was “no fluorescence bands”. Further, the “fluorescence band in pre-stained gel” value in [10] is reported as “weak fluorescence bands”. Further, in data set [11], the “fluorescence band in pre-stained gel” value is given as “weak fluorescence bands”. In data set [12], this compound showed an absorption peak of approximately 435 nm. For the same compound, the binding preference result in [13] (DNA quadruplex versus DNA duplex, fluorescence analysis) is recorded as “higher binding preference to a DNA quadruplex than to a DNA duplex”. For the same compound, the “fluorescence peak of complex” value in [13] (complex with a DNA quadruplex, λex≈430 nm) is approximately 575 nm. In addition, in data set [14], the “fluorescence peak of complex” value was approximately 550 nm.
